Source: patent US8283291B2, “Herbicidal composition” (Kumiai Chemical Industry Co., Ltd., priority 2006, dated 2012)

Key:
soybean (GLXMA) [1] = test: Test 1 on herbicidal effects against weeds and phytotoxicity by upland soil treatment; type: in vivo; conditions: 28th day
Experimental: (§1) In a plastic pot of 14 cm in length×23 cm in width×8 cm in depth, upland soil was filled, and seeds of soybean (GLXMA), corn (ZEAMX), Ipomoea lacunosa L. (IPOLA) and velvetleaf (ABUTH) were sown and covered with soil. […] Thereafter, cultivation was carried out in a greenhouse, and on the 28th day after the treatment, the herbicidal effects and phytotoxicity were examined in accordance with the standards as identified in Table 15.

corn (ZEAMX) [2] = test: as above; type: in vivo; conditions: 28th day
Experimental: as §1

soybean (GLXMA) [3] = test: Test on herbicidal effects against weeds and phytotoxicity by foliage treatment in upland field; type: in vivo; conditions: 21st day
Experimental: (§2) In a plastic pot of 11 cm in length×11 cm in width×11 cm in depth, the upland soil was filled, and seeds of corn (ZEAMX), soybean (GLXMA), greenfoxtail (SETVI), shattercane (SORVU), redroot pigweed (AMARE), Ipomoea lacunosa L. (IPOLA) and velvetleaf (ABUTH) were sown and covered with soil.
(§3) Then, cultivation was carried out in a greenhouse for 10 days. Then, a wettable powder prepared in accordance with Formulation Example 1 was weighed so that active ingredients would be the prescribed amounts, […] spray at a rate of 500 liter per 1 hectare. Thereafter, cultivation was carried out in a greenhouse, and on the 21st day after the treatment, the herbicidal effects and phytotoxicity were examined in accordance with the standards as identified in Table 15.

corn (ZEAMX) [4] = test: as above; type: in vivo; conditions: 21st day
Experimental: as §2, §3

[5] = tested on: Persian speedwell (VERPE); test: Test 2 on herbicidal effects against weeds and phytotoxicity by upland soil treatment; type: in vivo; conditions: 375 gai/ha, 28th day
Description: (§4) In a plastic pot of 14 cm in length×23 cm in width×8 cm in depth, upland soil was filled, and seeds of soybean (GLXMA), corn (ZEAMX), Ipomoea lacunosa L. (IPOLA) and velvetleaf (ABUTH) were sown and covered with soil. A wettable powder prepared in accordance with Formulation Example 1 was weighed so that the active ingredients became the prescribed amounts, diluted with water and uniformly applied to the soil surface by means of a small size spray at a rate of 500 liters per 1 hectare. Thereafter, cultivation was carried out in a greenhouse, and on the 28th day after the treatment, the herbicidal effects and phytotoxicity were examined in accordance with the standards as identified in Table 15.
(§5) The test on herbicidal effects and phytotoxicity against wheat (TRZAW), common chickweed (STEME) and Persian speedwell (VERPE) was carried out in the same manner as the above Test Example 1.

common chickweed (STEME) = test: as above; type: in vivo, Stellaria media; conditions: 375 gai/ha, 28th day
Description: as §4, §5

corn (ZEAMX) [6] = test: Test on effects of reducing phytotoxicity against corn by upland soil treatment; type: in vivo; conditions: 21st day
Experimental: In a plastic pot of 11 cm in length×11 cm in width×11 cm in depth, upland soil was filled, and seeds of corn (ZEAMX) were sown and covered with soil. A wettable powder prepared in accordance with Formulation Example 1 was weighed so that the active ingredients would be the prescribed amounts, diluted with water and uniformly applied to the soil surface by means of a small size spray at a rate of 500 liter per 1 hectare. Then, cultivation was carried out in a greenhouse, and on the 21st day after the treatment, the phytotoxicity against corn was examined in accordance with the standards as identified in Table 15.

## CNc1cnn(-c2cccc(C(F)(F)F)c2)c(=O)c1Cl [Norflurazon]
Soybean (GLXMA) [1]; 400 gai/ha
  phytotoxicity GLXMA: 1 (Herbicidal effect or phytotoxicity of at least 10% and less than 20%)
Corn (ZEAMX) [2]; 400 gai/ha
  phytotoxicity ZEAMX: 9 (Herbicidal effect or phytotoxicity of at least 90% and less than 100%)

## CCOC(=O)c1ccccc1S(=O)(=O)NC(=O)Nc1nc(Cl)cc(OC)n1 [Chlorimuron-ethyl]
Soybean (GLXMA) [3]; 6.3 gai/ha
  phytotoxicity GLXMA: 0 (Herbicidal effect or phytotoxicity of at least 0% and less than 10%)
Corn (ZEAMX) [4]; 6.3 gai/ha
  phytotoxicity ZEAMX: 4 (Herbicidal effect or phytotoxicity of at least 40% and less than 50%)

## CC(C)c1ccc(NC(=O)N(C)C)cc1 [Isoproturon]
[5]
  herbicidal effect VERPE: 5 (Herbicidal effect or phytotoxicity of at least 50% and less than 60%)
Common chickweed (STEME)
  herbicidal effect STEME: 6 (Herbicidal effect or phytotoxicity of at least 60% and less than 70%)

## CS(=O)(=O)c1ccc(C(=O)C2C(=O)CCCC2=O)c(Cl)c1 [Sulcotrione]
Corn (ZEAMX) [6]; 1000 gai/ha
  phytotoxicity against corn ZEAMX: 1 (Herbicidal effect or phytotoxicity of at least 10% and less than 20%)
Soybean (GLXMA) [3]; 25 gai/ha
  phytotoxicity GLXMA: 6 (Herbicidal effect or phytotoxicity of at least 60% and less than 70%)
Corn (ZEAMX) [4]; 25 gai/ha
  phytotoxicity ZEAMX: 0 (Herbicidal effect or phytotoxicity of at least 0% and less than 10%)

## CCOC(=O)C(C)Oc1ccc(Oc2cnc3cc(Cl)ccc3n2)cc1 (stereo not shown) [Quizalofop-ethyl]
Soybean (GLXMA) [3]; 25 gai/ha
  phytotoxicity GLXMA: 0 (Herbicidal effect or phytotoxicity of at least 0% and less than 10%)
Corn (ZEAMX) [4]; 25 gai/ha
  phytotoxicity ZEAMX: 10 (Herbicidal effect or phytotoxicity of 100%)

## CN(C)C(=O)Nc1ccc(Cl)c(Cl)c1 [Diuron]
Soybean (GLXMA) [1]; 800 gai/ha
  phytotoxicity GLXMA: 8 (Herbicidal effect or phytotoxicity of at least 80% and less than 90%)
Corn (ZEAMX) [2]; 800 gai/ha
  phytotoxicity ZEAMX: 8 (Herbicidal effect or phytotoxicity of at least 80% and less than 90%)

## C[C@H](NC(=O)[C@H](C)NC(=O)[C@@H](N)CCP(C)(=O)O)C(=O)O [Bilanafos]
Soybean (GLXMA) [3]; 1000 gai/ha
  phytotoxicity GLXMA: 9 (Herbicidal effect or phytotoxicity of at least 90% and less than 100%)
Corn (ZEAMX) [4]; 1000 gai/ha
  phytotoxicity ZEAMX: 9 (Herbicidal effect or phytotoxicity of at least 90% and less than 100%)

## CC(C)N1C(=O)c2ccccc2NS1(=O)=O [Bentazone]
Soybean (GLXMA) [3]; 400 gai/ha
  phytotoxicity GLXMA: 0 (Herbicidal effect or phytotoxicity of at least 0% and less than 10%)
Corn (ZEAMX) [4]; 400 gai/ha
  phytotoxicity ZEAMX: 0 (Herbicidal effect or phytotoxicity of at least 0% and less than 10%)

## CCNc1nc(Cl)nc(NC(C)C)n1 [Atrazine]
Corn (ZEAMX) [6]; 2500 gai/ha
  phytotoxicity against corn ZEAMX: 0 (Herbicidal effect or phytotoxicity of at least 0% and less than 10%)

## CCC/C(=N\OCC)C1=C(O)CC(CC(C)SCC)CC1=O (stereo not shown) [Sethoxydim]
Soybean (GLXMA) [3]; 100 gai/ha
  phytotoxicity GLXMA: 0 (Herbicidal effect or phytotoxicity of at least 0% and less than 10%)
Corn (ZEAMX) [4]; 100 gai/ha
  phytotoxicity ZEAMX: 9 (Herbicidal effect or phytotoxicity of at least 90% and less than 100%)

## CC1COc2ccccc2N1C(=O)C(Cl)Cl (stereo not shown) [Benoxacor]
Corn (ZEAMX) [6]; 50 gai/ha
  phytotoxicity against corn ZEAMX: 0 (Herbicidal effect or phytotoxicity of at least 0% and less than 10%)

## COC(=O)CSc1cc(/N=c2\sc(=O)n3n2CCCC3)c(F)cc1Cl [Fluthiacet-methyl]
Soybean (GLXMA) [3]; 10 gai/ha
  phytotoxicity GLXMA: 0 (Herbicidal effect or phytotoxicity of at least 0% and less than 10%)
Corn (ZEAMX) [4]; 10 gai/ha
  phytotoxicity ZEAMX: 0 (Herbicidal effect or phytotoxicity of at least 0% and less than 10%)

## C[n+]1ccc(-c2cc[n+](C)cc2)cc1 [Paraquat]
Soybean (GLXMA) [3]; 500 gai/ha
  phytotoxicity GLXMA: 10 (Herbicidal effect or phytotoxicity of 100%)
Corn (ZEAMX) [4]; 500 gai/ha
  phytotoxicity ZEAMX: 6 (Herbicidal effect or phytotoxicity of at least 60% and less than 70%)

## COc1cc(OC)nc(Oc2cccc(Oc3nc(OC)cc(OC)n3)c2C(=O)O)n1 [Bispyribac-sodium]
Soybean (GLXMA) [3]; 12.5 gai/ha
  phytotoxicity GLXMA: 9 (Herbicidal effect or phytotoxicity of at least 90% and less than 100%)
Corn (ZEAMX) [4]; 12.5 gai/ha
  phytotoxicity ZEAMX: 0 (Herbicidal effect or phytotoxicity of at least 0% and less than 10%)

## CC1(C)CON(Cc2ccccc2Cl)C1=O [Clomazone]
Soybean (GLXMA) [1]; 200 gai/ha
  phytotoxicity GLXMA: 0 (Herbicidal effect or phytotoxicity of at least 0% and less than 10%)
